For four compounds, Activity (nM min-1 mg-1) results are on record in ChEMBL document CHEMBL1130920, “The structure-activity relationships of a series of suicide inhibitors of phospholipase A2” (Bioorg Med Chem Lett, 1998).

A short description of the experiment: Compound was tested for the inhibitory activity against cobra venom PLA2 (Naja naja atra) by using the Dole assay.

Consider `O=[N+]([O-])c1ccc(O)cc1`, for which the Activity (nM min-1 mg-1) worked out at 2.5.
`O=S(=O)(c1ccc(O)cc1)C(F)(F)F` had an Activity (nM min-1 mg-1) of 11.9.
Next, `CS(=O)(=O)c1ccc(O)cc1`: 11.1; `[O-][S+](c1ccc(O)cc1)C(F)(F)F` (centres undefined): 2.
